The results in this text go back to patent US12583816B2, “Lipids for lipid nanoparticle delivery of active agents” (ACUITAS THERAPEUTICS, INC., priority 2018, dated 2026).

Series [1] in a line: Determination of pKa of formulated lipids (TNS fluorescence assay in lipid nanoparticles). The class given is physicochemical. Here is the method: As described elsewhere, the pKa of formulated cationic lipids is correlated with the effectiveness of LNPs for delivery of nucleic acids (see Jayaraman et al, Angewandte Chemie, International Edition (2012), 51(34), 8529-8533; Semple et al, Nature Biotechnology 28, 172-176 (2010)). The preferred range of pKa is ˜5 to ˜7. […] Lipid nanoparticles comprising cationic lipid/DSPC/cholesterol/PEG-lipid (50/10/38.5/1.5 mol %) in PBS at a concentration of 0.4 mM total lipid are prepared using the in-line process as described in Example 1. TNS is prepared as a 100 μM stock solution in distilled water. Vesicles are diluted to 24 μM lipid in 2 mL of buffered solutions containing, 10 mM HEPES, 10 mM MES, 10 mM ammonium acetate, 130 mM NaCl, where the pH ranged from 2.5 to 11. An aliquot of the TNS solution is added to give a final concentration of 1 μM and following vortex mixing fluorescence intensity is measured at room temperature in a SLM Aminco Series 2 Luminescence Spectrophotometer using excitation and emission wavelengths of 321 nm and 445 nm. A sigmoidal best fit analysis is applied to the fluorescence data and the pKa was measured as the pH giving rise to half-maximal fluorescence intensity.

For series [2], the system named is luciferase expression in the liver. In words: In vivo luciferase mRNA expression rodent model (lipid nanoparticle formulations, liver luciferase). Details: species or system mice. Conditions: LNP with FLuc mRNA, PEG-DMA; 0.5 mg mRNA/kg, tail vein injection, liver 4 hours after administration. As to the method: Lipid nanoparticles are prepared and tested according to the general procedures described in PCT Pub. Nos. WO 2015/199952 and WO 2017/004143, the full disclosures of which are incorporated herein by reference. Briefly, cationic lipid, DSPC, cholesterol and PEG-lipid are solubilized in ethanol at a molar ratio of about 50:10:38.5:1.5 or about 47.5:10:40.8:1.7. Lipid nanoparticles (LNP) are prepared at a total lipid to mRNA weight ratio of approximately 10:1 to 30:1. The mRNA is diluted to 0.2 mg/mL in 10 to 50 mM citrate or acetate buffer, pH 4. Syringe pumps are used to mix the ethanolic lipid solution with the mRNA aqueous solution at a ratio of about 1:5 to 1:3 (vol/vol) with total flow rates above 15 mL/min. The ethanol is then removed and the external buffer replaced with PBS by dialysis. Finally, the lipid nanoparticles are filtered through a 0.2 µm pore sterile filter. Lipid nanoparticle particle size is approximately 55-95 nm diameter, and in some instances approximately 70-90 nm diameter as determined by quasi-elastic light scattering using a Malvern Zetasizer Nano ZS (Malvern, UK).
Studies are performed in 6-8 week old female C57BL/6 mice (Charles River) or 8-10 week old CD-1 (Harlan) mice (Charles River) according to guidelines established by an institutional animal care committee (ACC) and the Canadian Council on Animal Care (CCAC). Varying doses of mRNA-lipid nanoparticle are systemically administered by tail vein injection and animals euthanized at a specific time point (e.g., 4 hours) post-administration. Liver and spleen are collected in pre-weighed tubes, weights determined, immediately snap frozen in liquid nitrogen and stored at −80° C. until processing for analysis.
For liver, approximately 50 mg is dissected for analyses in a 2 mL FastPrep tubes (MP Biomedicals, Solon OH). ¼″ ceramic sphere (MP Biomedicals) is added to each tube and 500 μL of Glo Lysis Buffer—GLB (Promega, Madison WI) equilibrated to room temperature is added to liver tissue. Liver tissues are homogenized with the FastPrep24 instrument (MP Biomedicals) at 2×6.0 m/s for 15 seconds. Homogenate is incubated at room temperature for 5 minutes prior to a 1:4 dilution in GLB and assessed using SteadyGlo Luciferase assay system (Promega). Specifically, 50 μL of diluted tissue homogenate is reacted with 50 μL of SteadyGlo substrate, shaken for 10 seconds followed by 5 minute incubation and then quantitated using a CentroXS^3 LB 960 luminometer (Berthold Technologies, Germany). The amount of protein assayed is determined by using the BCA protein assay kit (Pierce, Rockford IL). Relative luminescence units (RLU) are then normalized to total ug protein assayed. To convert RLU to ng luciferase a standard curve is generated with QuantiLum Recombinant Luciferase (Promega). […]

The mark [3] stands for this setting: cationic lipid formulated in LNP (cationic lipid/DSPC/cholesterol/PEG-lipid 50/10/38.5/1.5 mol %), TNS fluorescence, pH giving half-maximal fluorescence, Table 2.
Where [4] appears, read: formulated cationic lipid in LNP, TNS assay, Table 4.

Usually pKa stands for the negative logarithm of the acid dissociation constant. A low value points to a stronger acid or weaker base.

In series [1] (setting [3]), `CCCCCCCCC(CCCCCC)CN(CC(CCCCCC)CCCCCCCC)C(=O)CCCCN(C)C` (stereo not shown) [Compound I-1] gave a pKa of 6.68. Further, the “Liver Luc @ 0.5 mg/kg (ng luc/g liver)” value in series [2] was determined as 206 ± 141 ng luc/g liver. `CCCCCCCCC(CCCCCC)CN(CC(CCCCCC)CCCCCCCC)C(=O)CCCCCN(C)C` (stereo not shown) [Compound I-2] showed a pKa in series [1] (setting [3]) of 7.42.

Take `CCCCCCCCC(CCCCCC)CN(CC(CCCCCC)CCCCCCCC)C(=O)CCCCN(CCO)CCO` (stereo not shown) [Compound I-3]: the pKa in series [1] (setting [3]) came out at 6.49. In series [1] (setting [3]), `CCCCCCCCC(CCCCCC)CN(CC(CCCCCC)CCCCCCCC)C(=O)CCCCNC(C)C` (stereo not shown) [Compound I-4] yielded a pKa of 8.15. With `CCCCCCCCC(CCCCCC)CN(CC(CCCCCC)CCCCCCCC)C(=O)CCN(C)C` (stereo not shown) [Compound I-5], in series [1] (setting [3]), the pKa stood at 6.25. Also, the “Liver Luc @ 0.5 mg/kg (ng luc/g liver)” value in series [2] is 1417 ± 390 ng luc/g liver. Turning to `CCCCCCCCC(CCCCCC)CN(CC(CCCCCC)CCCCCCCC)C(=O)CCCCCCCCN(C)C` (stereo not shown) [Compound I-6], in series [1] (setting [3]), the pKa came out at 7.15. Still for that read-out and setting: the same measure for `CCCCCCCCC(CCCCCC)CN(CC(CCCCCC)CCCCCCCC)C(=O)CCCCCCCN(C)C` (stereo not shown) [Compound I-7]: 7.23. `CCCCCCCCC(CCCCCC)CN(CCCCCCCCCN(C)C)CC(CCCCCC)CCCCCCCC` (stereo not shown) [Compound I-8] returned a pKa in series [1] (setting [4]) of 5.96. The “Liver Luc @ 0.5 mg/kg (ng luc/g liver)” value in series [2] is reported as 1761 ± 598 ng luc/g liver.

In the case of `CCCCCCCCC(CCCCCC)CN(CCCCCCCCN(C)C)CC(CCCCCC)CCCCCCCC` (stereo not shown) [Compound I-9], in series [1] (setting [4]), the pKa was 5.85. Besides, the “Liver Luc @ 0.5 mg/kg (ng luc/g liver)” value in series [2] is given as 341 ± 126 ng luc/g liver.
